In US4150049A, “Esters of aromatic sulfonic acids” (The Government of the United States, priority 1977, dated 1979):

Tests used:
[1] = molecular target: T1, β-Trypsin (Bos taurus, UniProt P00760); assay: Dixon plot competitive inhibition of hydrolysis of benzyloxy-lysine-nitrophenyl ester by β-trypsin; type: biochemical, bovine; details: Dixon plots, pH 6.0; Ki (M) x 10^5; read-out: Inhibition constant Ki (M) x 10^5, β-Trypsin
T1 construct: bovine β-trypsin; made in house
T1 sequence (P00760 24-246): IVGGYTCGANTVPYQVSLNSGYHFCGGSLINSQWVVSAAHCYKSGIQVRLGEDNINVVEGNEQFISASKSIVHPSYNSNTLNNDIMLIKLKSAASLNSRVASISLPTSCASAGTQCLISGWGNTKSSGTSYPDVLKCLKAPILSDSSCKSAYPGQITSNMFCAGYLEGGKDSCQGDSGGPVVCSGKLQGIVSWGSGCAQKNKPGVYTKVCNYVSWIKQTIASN
Method: (§1) In accordance with the present invention, nitrophenyl m- and p-amidinophenylmethanesulfonate were prepared, and these compounds were examined for their properties related to inhibition and inactivation of specific enzymes. With regard to the enzymes employed, bovine β-trypsin and thrombin were chromatographically purified by known procedures. Human plasminogen was purified from Cohn fraction III and activated with streptokinase. Human plasma kallikrein was purified about 1000-fold from activated Cohn fraction IV, by affinity chromatography. Human thrombin was prepared by the method of Miller and Copeland. Bovine chymotrypsin three times crystallized was also employed, along with streptokinase.
(§2) Enzyme concentrations were determined by titration with nitrophenyl p-guanidinobenzoate in the case of trypsin, plasmin, and thrombin, whereas chymotrypsin molarity was based on weight. Kallikrein concentration is expressed in enzyme units as measured in a pH-state by esterase action on 0.02 M tos-Arg-OMe in 0.06 M KCl at pH 7.85; one unit corresponds to the hydrolysis of 1 μmole of ester per minute under these conditions.
(§3) Optical density change at 340 nm was measured with double beam operation as described above. […]

[2] = molecular target: T2, Plasma kallikrein (human) (Homo sapiens, UniProt P03952); assay: Dixon plot competitive inhibition of esterase action of human plasma kallikrein; type: biochemical; details: Dixon plots, pH 6.0; Ki (M) x 10^5; read-out: Inhibition constant Ki (M) x 10^5, Plasma kallikrein (human)
T2 construct: from tissue
Method: as §1, §2, §3

[3] = molecular target: T3, α-Chymotrypsin (Bos taurus, UniProt P00766); assay: Dixon plot competitive inhibition of hydrolysis of benzyloxy-lysine-nitrophenyl ester by α-chymotrypsin; type: biochemical, bovine; details: Dixon plots, pH 6.0; Ki (M) x 10^5; read-out: Inhibition constant Ki (M) x 10^5, α-Chymotrypsin
T3 construct: α-Chymotrypsin
Method: as §1, §2, §3

[4] = molecular target: T4, Thrombin (bovine) (Bos taurus, UniProt P00735); assay: Dixon plot competitive inhibition of hydrolysis of benzyloxy-lysine-nitrophenyl ester by bovine thrombin; type: biochemical
T4 construct: made in house
Method: as §1, §2, §3

[5] = molecular target: T5, Plasmin (human) (Homo sapiens, UniProt P00747); assay: Dixon plot competitive inhibition of esterase action of human plasmin; type: biochemical; details: Dixon plots, pH 6.0; Ki (M) x 10^5; read-out: Inhibition constant Ki (M) x 10^5, Plasmin (human)
T5 construct: from tissue; host or cells: Cohn fraction III (human plasma)
Method: as §1, §2, §3

[6] = molecular target: T6, Thrombin (human) (Homo sapiens, UniProt P00734); assay: Dixon plot competitive inhibition of hydrolysis of benzyloxy-lysine-nitrophenyl ester by human thrombin; type: biochemical; details: Dixon plots, pH 6.0; Ki (M) x 10^5; read-out: Inhibition constant Ki (M) x 10^5, Thrombin (human)
T6 construct: made in house
Method: as §1, §2, §3

[7] = molecular target: thrombin (Bos taurus, UniProt P00735); assay: presteady state kinetics of nitrophenol production by thrombin; type: biochemical, bovine
Method: as §1
The action of thrombin on nitrophenyl p-amidinophenylmethanesulfonate was also studied in 0.05 M sodium veronal buffer, pH 7.4 (with 0.02 M Ca^2+ + at a series of reagent concentrations to determine the possible formation of an intermediate complex as a step in the inactivation process. The apparatus was the same as above and presteady state nitrophenol production was analyzed for the calculation of k2 and KS. Concentrations of the p-isomer were 0.5, 1.0, 2.0, 2.5, 3.75, and 5.0×10^-4 M. One of the progress curves is shown in FIG. 1, with this graph representing the action of thrombin (3×10^-6 M) on the p-isomer, pH 8.3, 25° C., with stoichiometric nitrophenol release accompanying inactivation. Although the full chromogeneity of nitrophenol is not reached at this pH, the final value in each case was equal to that obtained in control titrations with NPGB.

T5 sequence (P00747 581-810 limits assumed): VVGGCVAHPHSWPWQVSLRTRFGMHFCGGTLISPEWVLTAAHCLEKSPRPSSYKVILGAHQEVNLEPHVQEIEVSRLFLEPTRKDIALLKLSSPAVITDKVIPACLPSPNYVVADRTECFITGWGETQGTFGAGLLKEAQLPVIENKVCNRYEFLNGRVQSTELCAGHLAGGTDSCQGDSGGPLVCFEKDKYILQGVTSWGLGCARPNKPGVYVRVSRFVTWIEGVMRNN
T5 sequence (P00747 97-580 limits assumed): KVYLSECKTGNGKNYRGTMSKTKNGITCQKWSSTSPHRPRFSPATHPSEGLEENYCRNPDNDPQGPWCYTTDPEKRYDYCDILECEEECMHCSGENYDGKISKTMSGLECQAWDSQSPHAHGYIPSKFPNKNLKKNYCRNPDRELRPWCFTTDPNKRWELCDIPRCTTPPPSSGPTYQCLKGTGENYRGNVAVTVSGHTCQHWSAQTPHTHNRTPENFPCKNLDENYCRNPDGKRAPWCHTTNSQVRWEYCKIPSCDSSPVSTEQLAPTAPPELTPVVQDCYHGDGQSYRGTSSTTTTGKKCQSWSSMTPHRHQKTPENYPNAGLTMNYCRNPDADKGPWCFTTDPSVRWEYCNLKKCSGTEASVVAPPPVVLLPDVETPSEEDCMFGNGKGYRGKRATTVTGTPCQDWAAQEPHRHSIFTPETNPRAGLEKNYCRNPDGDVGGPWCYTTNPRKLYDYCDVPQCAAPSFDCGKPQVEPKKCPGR
T2 sequence (P03952 391-638 limits assumed): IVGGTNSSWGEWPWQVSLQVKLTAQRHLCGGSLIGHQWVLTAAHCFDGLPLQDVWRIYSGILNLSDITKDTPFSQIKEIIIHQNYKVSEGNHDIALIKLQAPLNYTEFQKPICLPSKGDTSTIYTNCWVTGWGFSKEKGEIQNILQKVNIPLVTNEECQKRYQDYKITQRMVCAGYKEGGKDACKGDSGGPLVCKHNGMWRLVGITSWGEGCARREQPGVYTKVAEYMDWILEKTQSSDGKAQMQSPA
T2 sequence (P03952 20-390 limits assumed): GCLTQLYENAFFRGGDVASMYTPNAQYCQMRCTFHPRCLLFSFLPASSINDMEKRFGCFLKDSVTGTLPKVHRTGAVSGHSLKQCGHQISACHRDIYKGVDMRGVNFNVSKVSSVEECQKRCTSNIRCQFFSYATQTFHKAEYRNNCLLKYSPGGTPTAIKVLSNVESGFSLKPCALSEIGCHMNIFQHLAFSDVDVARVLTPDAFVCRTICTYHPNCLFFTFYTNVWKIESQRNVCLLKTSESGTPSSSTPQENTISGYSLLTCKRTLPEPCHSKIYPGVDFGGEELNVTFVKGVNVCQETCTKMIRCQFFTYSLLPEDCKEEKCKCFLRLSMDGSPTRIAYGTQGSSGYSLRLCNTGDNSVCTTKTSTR

Row | Ki [1] | Ki [2] | Ki [3] | Ki [4] | Ki [5] | Ki [6] | Kd [7] | Ki [7] | kinact ([7]; presteady state kinetics, pH 7.4, read-out: rate constant for inactive enzyme formation, k2 (converted)) | Structure (SMILES)
1 | 9e-06 M | 1.9e-05 M | 1.3e-05 M | 415 µM | 4.2e-05 M | 5.3e-05 M |  |  |  | N=C(N)c1cccc(CS(=O)(=O)Oc2ccc([N+](=O)[O-])cc2)c1 [m-isomer]
2 | 7e-05 M | 4.7e-05 M | 3.6e-05 M |  | 0.0005 M |  | 120 µM | 120 µM | 0.0193 s⁻¹ | N=C(N)c1ccc(CS(=O)(=O)Oc2ccc([N+](=O)[O-])cc2)cc1 [p-isomer]
